{"source": "PubChem BioAssay AID1259407", "about": "(Chemical Carcinogenesis Research Information System (CCRIS), 2018)", "tested_on": "CCRIS mutagenicity, Ames/micronucleus/aberration tests", "assay": "CCRIS mutagenicity studies", "key": {"[1]": {"details": "Test System: AMES SALMONELLA TYPHIMURIUM, Strain/Indicator: TA98, Metabolic Activation: NONE, Method: PREINCUBATION"}, "[2]": {"details": "Test System: AMES SALMONELLA TYPHIMURIUM, Strain/Indicator: TA98, Metabolic Activation: NONE, Method: STANDARD PLATE"}, "[3]": {"details": "Test System: AMES SALMONELLA TYPHIMURIUM, Strain/Indicator: TA98, Metabolic Activation: RAT, LIVER, S-9, AROCLOR 1254, Method: STANDARD PLATE"}, "[4]": {"details": "Test System: AMES SALMONELLA TYPHIMURIUM, Strain/Indicator: TA100, Metabolic Activation: NONE, Method: PREINCUBATION"}, "[5]": {"details": "Test System: AMES SALMONELLA TYPHIMURIUM, Strain/Indicator: TA100, Metabolic Activation: NONE, Method: STANDARD PLATE"}, "[6]": {"details": "Test System: AMES SALMONELLA TYPHIMURIUM, Strain/Indicator: TA100, Metabolic Activation: RAT, LIVER, S-9, AROCLOR 1254, Method: STANDARD PLATE"}}, "note": "Activity calls are given as the source filed them. The rule behind the calls is not given here.", "data": [{"compound": "Fc1c(F)c(F)c(Cl)c(F)c1F", "values": [{"measurement": "mutagenic call", "setting": "[1]", "result": "inactive; negative"}, {"measurement": "mutagenic call", "setting": "[2]", "result": "inactive; negative"}, {"measurement": "mutagenic call", "setting": "Test System: AMES SALMONELLA TYPHIMURIUM, Strain/Indicator: TA98, Metabolic Activation: RAT, LIVER, S-9, AROCLOR 1254, Method: PREINCUBATION", "result": "inactive; negative"}, {"measurement": "mutagenic call", "setting": "[3]", "result": "inactive; negative"}, {"measurement": "mutagenic call", "setting": "[4]", "result": "inactive; negative"}, {"measurement": "mutagenic call", "setting": "[5]", "result": "inactive; negative"}, {"measurement": "mutagenic call", "setting": "Test System: AMES SALMONELLA TYPHIMURIUM, Strain/Indicator: TA100, Metabolic Activation: RAT, LIVER, S-9, AROCLOR 1254, Method: PREINCUBATION", "result": "inactive; negative"}, {"measurement": "mutagenic call", "setting": "[6]", "result": "inactive; negative"}, {"measurement": "mutagenic call", "setting": "Test System: AMES SALMONELLA TYPHIMURIUM, Strain/Indicator: TA1535, Metabolic Activation: NONE, Method: PREINCUBATION", "result": "inactive; negative"}, {"measurement": "mutagenic call", "setting": "Test System: AMES SALMONELLA TYPHIMURIUM, Strain/Indicator: TA1535, Metabolic Activation: NONE, Method: STANDARD PLATE", "result": "inactive; negative"}, {"measurement": "mutagenic call", "setting": "Test System: AMES SALMONELLA TYPHIMURIUM, Strain/Indicator: TA1535, Metabolic Activation: RAT, LIVER, S-9, AROCLOR 1254, Method: PREINCUBATION", "result": "inactive; negative"}, {"measurement": "mutagenic call", "setting": "Test System: AMES SALMONELLA TYPHIMURIUM, Strain/Indicator: TA1535, Metabolic Activation: RAT, LIVER, S-9, AROCLOR 1254, Method: STANDARD PLATE", "result": "inactive; negative"}, {"measurement": "mutagenic call", "setting": "Test System: AMES SALMONELLA TYPHIMURIUM, Strain/Indicator: TA1537, Metabolic Activation: NONE, Method: PREINCUBATION", "result": "inactive; negative"}, {"measurement": "mutagenic call", "setting": "Test System: AMES SALMONELLA TYPHIMURIUM, Strain/Indicator: TA1537, Metabolic Activation: NONE, Method: STANDARD PLATE", "result": "inactive; negative"}, {"measurement": "mutagenic call", "setting": "Test System: AMES SALMONELLA TYPHIMURIUM, Strain/Indicator: TA1537, Metabolic Activation: RAT, LIVER, S-9, AROCLOR 1254, Method: PREINCUBATION", "result": "inactive; negative"}, {"measurement": "mutagenic call", "setting": "Test System: AMES SALMONELLA TYPHIMURIUM, Strain/Indicator: TA1537, Metabolic Activation: RAT, LIVER, S-9, AROCLOR 1254, Method: STANDARD PLATE", "result": "inactive; negative"}, {"measurement": "mutagenic call", "setting": "Test System: AMES SALMONELLA TYPHIMURIUM, Strain/Indicator: TA1538, Metabolic Activation: NONE, Method: PREINCUBATION", "result": "inactive; negative"}, {"measurement": "mutagenic call", "setting": "Test System: AMES SALMONELLA TYPHIMURIUM, Strain/Indicator: TA1538, Metabolic Activation: NONE, Method: STANDARD PLATE", "result": "inactive; negative"}, {"measurement": "mutagenic call", "setting": "Test System: AMES SALMONELLA TYPHIMURIUM, Strain/Indicator: TA1538, Metabolic Activation: RAT, LIVER, S-9, AROCLOR 1254, Method: PREINCUBATION", "result": "inactive; negative"}, {"measurement": "mutagenic call", "setting": "Test System: AMES SALMONELLA TYPHIMURIUM, Strain/Indicator: TA1538, Metabolic Activation: RAT, LIVER, S-9, AROCLOR 1254, Method: STANDARD PLATE", "result": "inactive; negative"}, {"measurement": "mutagenic call", "setting": "Test System: CHINESE HAMSTER OVARY, Strain/Indicator: CHO (HGPRT), Metabolic Activation: NONE", "result": "inactive; negative"}, {"measurement": "mutagenic call", "setting": "Test System: CHINESE HAMSTER OVARY, Strain/Indicator: CHO (HGPRT), Metabolic Activation: RAT, LIVER, S-9, AROCLOR 1254", "result": "inactive; negative"}, {"measurement": "mutagenic call", "setting": "Test System: CHINESE HAMSTER OVARY, Strain/Indicator: CHO-K1-BH4 (HGPRT)/6-THIOGUANINE, Metabolic Activation: NONE, Method: SUSPENSION/PLATE", "result": "inactive; negative"}, {"measurement": "mutagenic call", "setting": "Test System: CHINESE HAMSTER OVARY, Strain/Indicator: CHO-K1-BH4 (HGPRT)/6-THIOGUANINE, Metabolic Activation: RAT, LIVER, S-9, AROCLOR 1254, Method: SUSPENSION/PLATE", "result": "inactive; negative"}, {"measurement": "mutagenic call", "setting": "Test System: CHO/HGPRT, Strain/Indicator: CHO-K1-BH4, Metabolic Activation: NONE, Method: SUSPENSION/PLATE", "result": "inactive; negative"}, {"measurement": "mutagenic call", "setting": "Test System: CHO/HGPRT, Strain/Indicator: CHO-K1-BH4, Metabolic Activation: RAT, LIVER, S-9, AROCLOR 1254, Method: SUSPENSION/PLATE", "result": "inactive; negative"}, {"measurement": "mutagenic call", "setting": "Test System: UDS RAT PRIMARY HEPATOCYTES, Strain/Indicator: THY INCORP, Metabolic Activation: NONE, Method: IN VIVO-IN VITRO", "result": "inactive; negative"}, {"measurement": "mutagenic call", "setting": "Test System: UDS RODENT HEPATOCYTES, Strain/Indicator: THY INCORP (NON-S-PHASE), Metabolic Activation: NONE", "result": "inactive; negative"}]}, {"compound": "O=[N+]([O-])c1cccc2ccccc12", "values": [{"measurement": "mutagenic call", "setting": "[2]", "result": "active; positive"}, {"measurement": "mutagenic call", "setting": "Test System: E. COLI, Strain/Indicator: WP2 UVRA, Metabolic Activation: HAMSTER, LIVER, S-9, AROCLOR 1254, Method: STANDARD PLATE", "result": "inactive; negative"}, {"measurement": "mutagenic call", "setting": "Test System: E. COLI, Strain/Indicator: WP2 UVRA, Metabolic Activation: MOUSE, LIVER, S-9, AROCLOR 1254, Method: STANDARD PLATE", "result": "inactive; negative"}, {"measurement": "mutagenic call", "setting": "Test System: E. COLI, Strain/Indicator: WP2 UVRA, Metabolic Activation: MOUSE, LIVER, S-9, Method: STANDARD PLATE", "result": "inactive; negative"}, {"measurement": "mutagenic call", "setting": "Test System: E. COLI, Strain/Indicator: WP2 UVRA, Metabolic Activation: NONE, Method: STANDARD PLATE", "result": "inactive; negative"}, {"measurement": "mutagenic call", "setting": "Test System: E. COLI, Strain/Indicator: WP2 UVRA, Metabolic Activation: RAT, LIVER, S-9, AROCLOR 1254, Method: STANDARD PLATE", "result": "inactive; negative"}, {"measurement": "mutagenic call", "setting": "Test System: E. COLI, Strain/Indicator: WP2 UVRA, Metabolic Activation: RAT, LIVER, S-9, Method: STANDARD PLATE", "result": "inactive; negative"}]}, {"compound": "Nc1ccc(Sc2ccc([N+](=O)[O-])cc2)cc1", "values": [{"measurement": "mutagenic call", "setting": "[2]", "result": "active; positive"}, {"measurement": "mutagenic call", "setting": "[3]", "result": "active; positive"}]}, {"compound": "[O-][n+]1cc2ncccc2cn1", "values": [{"measurement": "mutagenic call", "setting": "[1]", "result": "inactive; negative"}, {"measurement": "mutagenic call", "setting": "Test System: AMES SALMONELLA TYPHIMURIUM, Strain/Indicator: TA98, Metabolic Activation: RAT, LIVER, S-9, PCB, Method: PREINCUBATION", "result": "inactive; negative"}, {"measurement": "mutagenic call", "setting": "[4]", "result": "inactive; negative"}, {"measurement": "mutagenic call", "setting": "Test System: AMES SALMONELLA TYPHIMURIUM, Strain/Indicator: TA100, Metabolic Activation: RAT, LIVER, S-9, PCB, Method: PREINCUBATION", "result": "inactive; negative"}]}, {"compound": "C=CCn1cc2c3c(cccc31)[C@H]1C=C(CO)CN(C)[C@@H]1C2", "values": [{"measurement": "mutagenic call", "setting": "[6]", "result": "active; positive"}]}, {"compound": "CNC(=O)N(C)C(=O)NO", "values": [{"measurement": "mutagenic call", "setting": "[2]", "result": "inactive; negative"}, {"measurement": "mutagenic call", "setting": "[5]", "result": "inactive; negative"}]}]}
